From PubChem BioAssay AID248 (DTP/NCI, 2004)
Toxic doses and inconclusive results are not listed. Cut-off read from the data, not from the text of the source: active = T/C of 150% or more; inactive = T/C below 125%.

Tested on: L1210 leukemia ip in BDF1 mice, survival T/C
Assay: NCI In Vivo Anticancer Drug Screen. Data for tumor model L1210 Leukemia (intraperitoneal) in B6D2F1 (BDF1) mice
Details: endpoint: mean survival time, higher = longer survival
Outline: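 Transplantable tumor model; survival measured in treated vs vehicle control mice. Value = treated/control.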

[1] = dose: 100.0 mg/kg/injection, schedule: Q01DX001 (ip), vehicle: saline
[2] = dose: 200.0 mg/kg/injection, schedule: Q01DX001 (ip), vehicle: saline
[3] = dose: 100.0 mg/kg/injection, schedule: Q01DX001 (ip), vehicle: Klucel (hydroxypropylcellulose) (HPC)
[4] = dose: 200.0 mg/kg/injection, schedule: Q01DX001 (ip), vehicle: Klucel (hydroxypropylcellulose) (HPC)
[5] = dose: 400.0 mg/kg/injection, schedule: Q01DX001 (ip), vehicle: Klucel (hydroxypropylcellulose) (HPC)
[6] = dose: 400.0 mg/kg/injection, schedule: Q01DX001 (ip), vehicle: saline
[7] = dose: 100.0 mg/kg/injection, schedule: Q04DX003 (ip), vehicle: Klucel (hydroxypropylcellulose) (HPC)
[8] = dose: 200.0 mg/kg/injection, schedule: Q04DX003 (ip), vehicle: Klucel (hydroxypropylcellulose) (HPC)
[9] = dose: 400.0 mg/kg/injection, schedule: Q04DX003 (ip), vehicle: Klucel (hydroxypropylcellulose) (HPC)
[10] = dose: 100.0 mg/kg/injection, schedule: Q01DX009 (ip), vehicle: saline with Tween-80
[11] = dose: 200.0 mg/kg/injection, schedule: Q01DX009 (ip), vehicle: saline with Tween-80
[12] = dose: 100.0 mg/kg/injection, schedule: Q04DX003 (ip), vehicle: saline
[13] = dose: 200.0 mg/kg/injection, schedule: Q04DX003 (ip), vehicle: saline
[14] = dose: 400.0 mg/kg/injection, schedule: Q04DX003 (ip), vehicle: saline

Measured: T/C

CC1CCC2(C)CCC(C(C)C)C2(O)CC1 (centres undefined)
inactive: dose: 50.0 mg/kg/injection, schedule: Q01DX009 (ip), vehicle: saline sonified 90 % of control | dose: 100.0 mg/kg/injection, schedule: Q01DX009 (ip), vehicle: saline sonified 97 % of control | dose: 100.0 mg/kg/injection, schedule: Q04DX003 (ip), vehicle: saline sonified 107 % of control | dose: 200.0 mg/kg/injection, schedule: Q01DX009 (ip), vehicle: saline sonified 92 % of control | dose: 200.0 mg/kg/injection, schedule: Q04DX003 (ip), vehicle: saline sonified 100 % of control

Nc1ccc(C(=O)N/N=C/c2ccc(N(CCBr)CCBr)cc2)cc1
inactive: dose: 12.5 mg/kg/injection, schedule: Q01DX Z (ip), vehicle: carboxymethylcellulose (CMC) 124 % of control | [1] 98 % of control | [2] 108 % of control

Cc1ccc(/C=C2/C=C(c3ccccc3)OC2=O)cc1
inactive: dose: 50.0 mg/kg/injection, schedule: Q01DX009 (ip), vehicle: alcohol 87 % of control | dose: 100.0 mg/kg/injection, schedule: Q01DX009 (ip), vehicle: alcohol 87 % of control | dose: 100.0 mg/kg/injection, schedule: Q04DX003 (ip), vehicle: alcohol 92 % of control | dose: 200.0 mg/kg/injection, schedule: Q01DX009 (ip), vehicle: alcohol 88 % of control | dose: 200.0 mg/kg/injection, schedule: Q04DX003 (ip), vehicle: alcohol 95 % of control

O=P1(c2ccccc2)CCc2[nH]c3ccc(F)cc3c2C1 (centres undefined)
inactive: [3] 97 % of control | [4] 100 % of control | [5] 98 % of control

N#CCCc1c(-c2ccccc2)nc(N)[nH]c1=O
inactive: dose: 100.0 mg/kg/injection, schedule: Q04DX003 (ip), vehicle: carboxymethylcellulose (CMC) 92 % of control | dose: 200.0 mg/kg/injection, schedule: Q04DX003 (ip), vehicle: carboxymethylcellulose (CMC) 92 % of control | dose: 400.0 mg/kg/injection, schedule: Q04DX003 (ip), vehicle: carboxymethylcellulose (CMC) 87 % of control

NNC(=O)CNc1ccc(F)c(C(F)(F)F)c1
inactive: dose: 100.0 mg/kg/injection, schedule: Q04DX002 (ip), vehicle: Klucel (hydroxypropylcellulose) (HPC) 107 % of control | dose: 200.0 mg/kg/injection, schedule: Q04DX002 (ip), vehicle: Klucel (hydroxypropylcellulose) (HPC) 118 % of control

C/C(CNc1nc(N)nc(N)c1N=Nc1ccc(Cl)cc1)=N\NC(N)=O
inactive: [1] 94 % of control | [2] 98 % of control | [6] 94 % of control

O=[N+]([O-])c1ccc2cnn(CCO)c2c1
inactive: dose: 100.0 mg/kg/injection, schedule: Q01DX001 (ip), vehicle: carboxymethylcellulose (CMC) 101 % of control | dose: 200.0 mg/kg/injection, schedule: Q01DX001 (ip), vehicle: carboxymethylcellulose (CMC) 113 % of control | dose: 400.0 mg/kg/injection, schedule: Q01DX001 (ip), vehicle: carboxymethylcellulose (CMC) 101 % of control

O=c1[nH]nnc2ncn(C3OC(CO)C(O)C3O)c12 (centres undefined)
inactive: dose: 100.0 mg/kg/injection, schedule: Q01DX005 (ip), vehicle: saline 91 % of control | dose: 200.0 mg/kg/injection, schedule: Q01DX005 (ip), vehicle: saline 87 % of control

COC(=O)Nc1nc2ccc(Br)cc2[nH]1
inactive: dose: 100.0 mg/kg/injection, schedule: Q01DX009 (ip), vehicle: Klucel (hydroxypropylcellulose) (HPC) 100 % of control | [7] 92 % of control | dose: 200.0 mg/kg/injection, schedule: Q01DX009 (ip), vehicle: Klucel (hydroxypropylcellulose) (HPC) 100 % of control | [8] 96 % of control | dose: 400.0 mg/kg/injection, schedule: Q01DX009 (ip), vehicle: Klucel (hydroxypropylcellulose) (HPC) 109 % of control | [9] 94 % of control

CCCCCCC(O)/C=C/c1ccc(Cl)cc1 (centres undefined)
inactive: [10] 94 % of control | [11] 91 % of control

CC(=O)ON1C(=O)c2ccccc2C1=O
inactive: dose: 50.0 mg/kg/injection, schedule: Q01DX001 (ip), vehicle: saline 102 % of control | [1] 100 % of control | [2] 102 % of control

CC1=CC(C)(C(Cl)(Cl)Cl)C=C/C1=N\OC(C)C(=O)O (centres undefined)
inactive: dose: 75.0 mg/kg/injection, schedule: Q01DX001 (ip), vehicle: carboxymethylcellulose (CMC) 95 % of control | [12] 106 % of control | dose: 150.0 mg/kg/injection, schedule: Q01DX001 (ip), vehicle: carboxymethylcellulose (CMC) 106 % of control | [13] 95 % of control | [14] 97 % of control

CN(C)C(=S)SCCC(N)C(=O)O (centres undefined)
inactive: dose: 50.0 mg/kg/injection, schedule: Q01DX009 (ip), vehicle: saline with Tween-80 90 % of control | [10] 101 % of control | [11] 96 % of control

Oc1ccc2ccccc2c1/C=N/N=C/c1c(O)ccc2ccccc12
inactive: [7] 96 % of control | [8] 91 % of control | dose: 300.0 mg/kg/injection, schedule: Q01DX009 (ip), vehicle: Klucel (hydroxypropylcellulose) (HPC) 98 % of control | [9] 88 % of control

NC(N)=Nc1ccc(OC(=O)c2ccc(N=C(N)N)cc2)cc1
inactive: dose: 25.0 mg/kg/injection, schedule: Q01DX009 (ip), vehicle: water 96 % of control | dose: 50.0 mg/kg/injection, schedule: Q01DX009 (ip), vehicle: water 96 % of control

CC(C)(C(=O)OCCOCCCl)c1cccc2ccccc12
inactive: dose: 100.0 mg/kg/injection, schedule: Q04DX002 (ip), vehicle: saline with Tween-80 113 % of control | dose: 200.0 mg/kg/injection, schedule: Q04DX002 (ip), vehicle: saline with Tween-80 111 % of control | dose: 400.0 mg/kg/injection, schedule: Q04DX002 (ip), vehicle: saline with Tween-80 95 % of control

CC(=O)Oc1c2n(c(=O)c3cocc13)Cc1cc3ccccc3nc1-2
inactive: [3] 92 % of control | [4] 94 % of control | [5] 90 % of control

COC(=O)NC1CC/C=C\CCC1I (centres undefined)
inactive: dose: 200.0 mg/kg/injection, schedule: Q04DX002 (ip), vehicle: DMSO 102 % of control

Nc1ncnc2nc(N=Nc3ccc(S(N)(=O)=O)cc3)[nH]c12
inactive: [7] 108 % of control | [8] 102 % of control | [9] 100 % of control

COc1ccc2c(c1O)[C@]13CCN(C)[C@H](C2)[C@@H]1CCC(=O)C3
inactive: dose: 75.0 mg/kg/injection, schedule: Q01DX001 (ip), vehicle: saline 101 % of control | dose: 150.0 mg/kg/injection, schedule: Q01DX001 (ip), vehicle: saline 106 % of control

CCc1nc(=S)c2[nH]cnc2[nH]1
inactive: dose: 100.0 mg/kg/injection, schedule: Q04DX003 (ip), vehicle: saline with Tween-80 93 % of control | dose: 200.0 mg/kg/injection, schedule: Q04DX003 (ip), vehicle: saline with Tween-80 90 % of control | dose: 400.0 mg/kg/injection, schedule: Q04DX003 (ip), vehicle: saline with Tween-80 93 % of control

Cc1cc(N(CCOS(C)(=O)=O)CCOS(C)(=O)=O)ccc1C=Nc1cccc(Br)c1
inactive: dose: 20.0 mg/kg/injection, schedule: Q04DX003 (ip), vehicle: Klucel (hydroxypropylcellulose) (HPC) 110 % of control | dose: 40.0 mg/kg/injection, schedule: Q04DX003 (ip), vehicle: Klucel (hydroxypropylcellulose) (HPC) 121 % of control | dose: 80.0 mg/kg/injection, schedule: Q04DX003 (ip), vehicle: Klucel (hydroxypropylcellulose) (HPC) 98 % of control | [7] 120 % of control

O=C(O)c1ccc2cc(O)ccc2c1
inactive: [12] 92 % of control | [13] 98 % of control | [14] 97 % of control

NC(=O)NC1CC1c1ccccc1 (centres undefined)
inactive: [1] 101 % of control | [2] 95 % of control | [6] 120 % of control
